Test results: patent US7157222B2, “Method of cryopreservation of tissues by vitrification” (Organ Recovery Systems, Inc., priority 1999, dated 2007)

Assays:
[1] = system: artery ring segments; experiment: Maximal contractile response of artery rings; type: cell-based; details: for Maximal Physiological Responses, Vitrified: artery rings vitrified with VS55 (norepinephrine n = 37, phenylephrine n = 23); for Maximal Physiological Responses, Vitrified / Maximal Physiological Responses, Control: Mean ± SEM; for Maximal Physiological Responses, % of corresponding fresh controls: artery rings vitrified with VS55 versus fresh controls; for Maximal Physiological Responses, Control: fresh rings (norepinephrine n = 16, phenylephrine n = 12)
Method: (§1) Vein rings, which are about 4 mm long segments of rabbit external jugular veins, are vitrified in VS55 by the method described above for longer external jugular vein segments, except that perfusion is not used. After being rewarmed, the vein rings are mounted between two stainless steel wire hooks and suspended in a vascular smooth muscle bath containing 5 ml of Krebs Henseleit (KH) solution, which is gassed continuously with 95% O2 and 5% CO2 at 37° C. The baseline tension of all vein rings is adjusted to 0.25 to 0.75 g. Changes in tension are recorded by force transducers. After 1 hour of equilibration, the vein rings are pretested with potassium chloride for contraction. After rinsing with KH solution, the vein rings are equilibrated for another 30 minutes prior to the start of experiment. During a relaxation experiment, contraction of the vein rings is produced by 10^−6M norepinephrine and, after the contractile response plateaus, cumulative concentrations of acetylcholine (10^−10M to 10^−4M) are added to the bathing medium to induce the endothelium dependent relaxation response.
Artery rings are vitrified in VS55 by the method described above for vein rings. After being rewarmed, norepinephrine and phenylephrine are tested in artery ring segments vitrified with VS55 and fresh artery rings.

[2] = system: rabbit jugular vein ring segments; experiment: Maximal contractile response of vein rings in vascular smooth muscle bath; type: cell-based; details: for Maximal Physiological Responses, Control: fresh vein rings (n = 15); for Maximal Physiological Responses, Control / Maximal Physiological Responses, Vitrified: Mean ± SEM; for Maximal Physiological Responses, % of corresponding fresh controls: vein rings vitrified with VS55 versus fresh vein rings; for Maximal Physiological Responses, Vitrified: vein rings vitrified with vitrification solution VS55 (n = 26)
Method: as §1, with “After being rewarmed, the vein rings are mounted between two stainless steel wire hooks and suspended in a vascular smooth muscle bath containing 5 ml of Krebs Henseleit (KH) solution, which is gassed continuously with 95% O2 and 5% CO2 at 37° C.” left out, “response. In the current study, histamine, bradykinin, angiotensin II, and norepinephrine are tested in rabbit jugular vein ring segments vitrified with VS55 and fresh vein rings. Both histamine and bradykinin produce contraction in the vein via their local receptors. Norepinephrine acts directly on the adrenoceptor, while angiotensin II binds to AT receptors and acts through local renin-angiotensin systems.” for “response.”

CNC[C@H](O)c1cccc(O)c1 [Phenylephrine, phenylephrine]
Maximal Physiological Responses, Vitrified [1]: 2.23 ± 0.29 g | Maximal Physiological Responses, % of corresponding fresh controls [1]: 88.3% | Maximal Physiological Responses, Control [1]: 2.53 ± 0.45 g

NC[C@H](O)c1ccc(O)c(O)c1 [Norepinephrine, norepinephrine]
Maximal Physiological Responses, Control [2]: 0.99 ± 0.12 g | Maximal Physiological Responses, % of corresponding fresh controls [2]: 83.8% | Maximal Physiological Responses, Vitrified [2]: 0.83 ± 0.14 g | Maximal Physiological Responses, Vitrified [1]: 2.58 ± 0.23 g | Maximal Physiological Responses, % of corresponding fresh controls [1]: 90.8% | Maximal Physiological Responses, Control [1]: 2.84 ± 0.38 g

NCCc1c[nH]cn1 [Histamine, histamine]
Maximal Physiological Responses, Control [2]: 1.78 ± 0.19 g | Maximal Physiological Responses, % of corresponding fresh controls [2]: 87.1% | Maximal Physiological Responses, Vitrified [2]: 1.55 ± 0.27 g

angiotensin II (DRVYIHPF; Angiotensin-2; UniProt P01019 25-32, looked up)
Maximal Physiological Responses, Control [2]: 0.58 ± 0.06 g | Maximal Physiological Responses, % of corresponding fresh controls [2]: 84.5% | Maximal Physiological Responses, Vitrified [2]: 0.49 ± 0.09 g
